{"source": "patent EP4201929A1", "about": "“QUINOXALINE THIOREDOXIN REDUCTASE INHIBITORS” (geneXplain GmbH, priority 2021, dated 2023)", "assay_type_in_all_cases": "cell-based", "key": {"[1]": {"system": "γH2AX", "test": "DNA damage detection by Western blot (phosphorylated histone H2AX)", "settings": "HCT116 and MCF7", "protocol": "The extraction of total cell lysates and western blot were performed according to standard procedure. The antibodies used for immunoblotting were: p53 (sc-126, Santa Cruz Biotechnology), γH2AX (#07-164, Millipore), TrxRl 19A1 (AbFrontier). Anti-β-actin monoclonal antibody (Millipore) was used as loading control. The horseradish peroxidase-coupled secondary antibodies (Jackson ImmunoResearch) and SuperSignal™ West Dura Extended Duration Substrate detection system (Thermo Fischer Scientific), and images were visualized using ChemiDoc Imaging System (Bio-Rad).\nThe majority of chemotherapeutic drugs used currently in the clinic, are DNA damaging drugs. Induction of DNA damage is a very efficient way of elimination of cancer cells. Unfortunately, these drugs induce DNA damage also in normal cells, leading to severe side effects. We addressed the question whether 1d*HCl induces DNA damage. We tested this by detection of a hallmark of DNA damage, induction of phosphorylated histone H2AX, so called γH2AX. We used anti-yH2AX antibody to detect it in cells treated with 1d*HCl."}, "[2]": {"system": "OVCAR4", "test": "Growth suppression, cancer cell line panel (resazurin)", "settings": "OVCAR4 ovarian, 48 hours", "protocol": "(§1) Breast, colon, ovarian, cervical, liver and lung carcinoma cell lines were grown in DMEM supplemented with 10% FBS, and antibiotics were cultured at 37 °C and 5% CO2. Osteosarcoma, melanoma, lymphoma, neuroblastoma and leukemia cell lines were cultured in RPMI 1640 with 10% FBS and antibiotics. An oxygen concentration of 0.3% was obtained by flushing a sealed box containing the cells with premixed gas composed of 95% nitrogen (N2) and 5% CO2 (AGA AB, Sweden). To obtain an oxygen concentration of 0.05%, the cells were flushed with the premixed gas continuously throughout the experiment.\n(§2) Cells were grown in 96-well plates at a density of 3000 cells per well with or without doxycycline and treated with compounds. After 48 hours of incubation the proliferative cell reagent resazurin (Thermo Fisher Scientific) was added to the cells. The degree of resazurin reduction, which reflects cell viability, was measured by microplate reader by monitoring the absorbance at 570 nm and 600 nm, according to the manufacturer.\n(§3) Growth suppression by the soluble compound 1d*HCl in a panel of 27 cancer cell lines. The panel of cancer cell lines, including carcinomas of breast (MDA-MB231, SKBR3, T47D, MCF7; BT549, BT20, MDA-MB468), colon, (SW480, RKO, HT29, HCT116) ovarian (OVCAR3, OVCAR4, OVCAR8), cervical (SW756, C33A), liver (HEPG2) and lung (H23), osteosarcoma (SJSA and U2OS), melanoma (ME180), lymphoma (Raji, HDLM2), neuroblastoma (SKNAS, IMR32) and leukemia (NB4, K562) were treated with increasing concentrations of 1d*HCl: 0.4; 0.8; 1.6; 3.2; 6.4; 12.8; 25.6 µM in 96-well plates. After 48 hours of incubation the proliferative cell reagent resazurin was added to the cells. The degree of resazurin reduction, which reflects cell viability, was measured by microplate reader by monitoring the absorbance at 570 nm and 600 nm, according to the manufacturer, and the IC50 and AUC (area under curve) were determined (Table 2). As could be seen in Table 2, 1d*HCl suppressed the growth of cancer cell lines of a different origin, including carcinomas, osteosarcomas, melanoma, lymphoma, leukemia and neuroblastoma. These findings open up a possibility of the application of the present invention in anti-cancer therapy in a broad range of tumor types. Table 2: a) Breast cancer"}, "[3]": {"system": "C33A", "test": "Growth suppression, cancer cell line panel (resazurin)", "settings": "C33A cervical, 48 hours", "protocol": "as §1, §2, §3"}, "[4]": {"system": "HT29", "test": "Growth suppression, cancer cell line panel (resazurin)", "settings": "HT29 colon, 48 hours", "protocol": "as §1, §2, §3"}, "[5]": {"system": "NB4", "test": "Growth suppression, cancer cell line panel (resazurin)", "settings": "NB4 leukemia, 48 hours", "protocol": "as §1, §2, §3"}, "[6]": {"system": "MCF7", "test": "Growth suppression, cancer cell line panel (resazurin)", "settings": "MCF7 breast, 48 hours", "protocol": "as §1, §2, §3"}, "[7]": {"system": "T47D", "test": "Growth suppression, cancer cell line panel (resazurin)", "settings": "T47D breast, 48 hours", "protocol": "as §1, §2, §3"}, "[8]": {"system": "MDA- MB231", "test": "Growth suppression, cancer cell line panel (resazurin)", "settings": "MDA-MB231 breast, 48 hours", "protocol": "as §1, §2, §3"}, "[9]": {"system": "BT20", "test": "Growth suppression, cancer cell line panel (resazurin)", "settings": "BT20 breast, 48 hours", "protocol": "as §1, §2, §3"}, "[10]": {"system": "U2OS", "test": "Growth suppression, cancer cell line panel (resazurin)", "settings": "U2OS osteosarcoma, 48 hours", "protocol": "as §1, §2, §3"}, "[11]": {"system": "HCT116", "test": "Growth suppression, cancer cell line panel (resazurin)", "settings": "HCT116 colon, 48 hours", "protocol": "as §1, §2, §3"}, "[12]": {"system": "OVCAR3", "test": "Growth suppression, cancer cell line panel (resazurin)", "settings": "OVCAR3 ovarian, 48 hours", "protocol": "as §1, §2, §3"}, "[13]": {"system": "SKBR3", "test": "Growth suppression, cancer cell line panel (resazurin)", "settings": "SKBR3 breast, 48 hours", "protocol": "as §1, §2, §3"}, "[14]": {"system": "BT549", "test": "Growth suppression, cancer cell line panel (resazurin)", "settings": "BT549 breast, 48 hours", "protocol": "as §1, §2, §3"}, "[15]": {"system": "SW756", "test": "Growth suppression, cancer cell line panel (resazurin)", "settings": "SW756 cervical, 48 hours", "protocol": "as §1, §2, §3"}, "[16]": {"system": "HDLM2", "test": "Growth suppression, cancer cell line panel (resazurin)", "settings": "HDLM2 lymphoma, 48 hours", "protocol": "as §1, §2, §3"}, "[17]": {"system": "HCT116-Cas9", "test": "Growth suppression assay (resazurin)", "settings": "48 hours of incubation, hydrochloride", "protocol": "(§4) Breast, colon, ovarian, cervical, liver and lung carcinoma cell lines were grown in DMEM supplemented with 10% FBS, and antibiotics were cultured at 37 °C and 5% CO2. […] To obtain an oxygen concentration of 0.05%, the cells were flushed with the premixed gas continuously throughout the experiment.\nas §2"}, "[18]": {"system": "MCF7-Cas9", "test": "Growth suppression assay (resazurin)", "settings": "48 hours of incubation, hydrochloride", "protocol": "as §4, §2"}}}
{"smiles": "Cl.N#Cc1c(-c2cccnc2)[n+]([O-])c2cc(F)c(N3CCOCC3)cc2[n+]1[O-]", "note": "[1d*HCl, 6-Fluoro-7-(morpholin-4-yl)-3-(pyridin-3-yl)quinoxaline-2-carbonitrile-1,4-dioxide hydrochloride]", "values": [{"measurement": "induction of γH2AX", "setting": "[1]", "value": "negligible"}, {"measurement": "IC50", "setting": "[2]; Homo sapiens, OVCAR-4, resazurin", "value": 1.57, "unit": "µM"}, {"measurement": "AUC", "setting": "[2]; area under curve, 0.4-25.6 µM", "value": "3,7"}, {"measurement": "IC50", "setting": "[3]; resazurin", "value": "variable"}, {"measurement": "AUC", "setting": "[3]; area under curve, 0.4-25.6 µM", "value": 21}, {"measurement": "AUC", "setting": "[4]; area under curve, 0.4-25.6 µM", "value": "4,77"}, {"measurement": "IC50", "setting": "[4]; Homo sapiens, HT-29, resazurin", "value": 3.5, "unit": "µM"}, {"measurement": "IC50", "setting": "[5]; resazurin", "value": "variable"}, {"measurement": "AUC", "setting": "[5]; area under curve, 0.4-25.6 µM", "value": "25,4"}, {"measurement": "IC50", "setting": "[6]; Homo sapiens, resazurin", "value": 2.54, "unit": "µM"}, {"measurement": "AUC", "setting": "[6]; area under curve, 0.4-25.6 µM", "value": "3,64"}, {"measurement": "IC50", "setting": "[7]; Homo sapiens, resazurin", "value": 2.74, "unit": "µM"}, {"measurement": "AUC", "setting": "[7]; area under curve, 0.4-25.6 µM", "value": "3,93"}, {"measurement": "IC50", "setting": "[8]; Homo sapiens, MDA-MB-231, resazurin", "value": 0.78, "unit": "µM"}, {"measurement": "AUC", "setting": "[8]; area under curve, 0.4-25.6 µM", "value": "1,21"}, {"measurement": "AUC", "setting": "[9]; area under curve, 0.4-25.6 µM", "value": "9,64"}, {"measurement": "IC50", "setting": "[9]; Homo sapiens, BT-20, resazurin", "value": 5.91, "unit": "µM"}, {"measurement": "IC50", "setting": "[10]; Homo sapiens, resazurin, read-out: ICso", "value": 1.04, "unit": "µM"}, {"measurement": "AUC", "setting": "[10]; area under curve, 0.4-25.6 µM", "value": "2,10"}, {"measurement": "AUC", "setting": "[11]; area under curve, 0.4-25.6 µM", "value": "1,37"}, {"measurement": "IC50", "setting": "[11]; Homo sapiens, HCT-116, resazurin", "value": 0.86, "unit": "µM"}, {"measurement": "IC50", "setting": "[12]; Homo sapiens, OVCAR-3, resazurin", "value": 2.64, "unit": "µM"}, {"measurement": "AUC", "setting": "[12]; area under curve, 0.4-25.6 µM", "value": "4,813"}, {"measurement": "IC50", "setting": "[13]; Homo sapiens, SK-BR-3, resazurin", "value": 2.13, "unit": "µM"}, {"measurement": "AUC", "setting": "[13]; area under curve, 0.4-25.6 µM", "value": "3,06"}, {"measurement": "AUC", "setting": "[14]; area under curve, 0.4-25.6 µM", "value": "2,52"}, {"measurement": "IC50", "setting": "[14]; Homo sapiens, BT-549, resazurin", "value": 1.7, "unit": "µM"}, {"measurement": "IC50", "setting": "[15]; Homo sapiens, resazurin", "value": 1.54, "unit": "µM"}, {"measurement": "AUC", "setting": "[15]; area under curve, 0.4-25.6 µM", "value": "2,84"}, {"measurement": "AUC", "setting": "[16]; area under curve, 0.4-25.6 µM", "value": "4,68"}, {"measurement": "IC50", "setting": "[16]; Homo sapiens, HDLM-2, resazurin", "value": 1.27, "unit": "µM"}, {"measurement": "IC50", "setting": "[17]", "value": 0.69, "unit": "µM"}, {"measurement": "IC50", "setting": "[18]", "value": 1.6, "unit": "µM"}]}
